The test system of one experiment is T1, GUS2.
T1 construct: full-length ORF in pEASY-Blunt E1, His-tag purified from E. coli BL21(DE3), about 55 kDa on SDS-PAGE
The experiment in a line: HPLC of baicalein formed, Hanes-Woolf plot. The experiment is classed as biochemical, Scutellaria baicalensis. The settings on record: PBS pH 9, 45 °C, 40 min.

The next experiment relates to T2, GUS1.
T2 construct: full-length ORF in pEASY-Blunt E1, His-tag purified from E. coli BL21(DE3), about 60 kDa on SDS-PAGE
In words: HPLC of baicalein formed, Hanes-Woolf plot. Particulars: PBS pH 9, 45 °C, 40 min. In kind it is biochemical, Scutellaria baicalensis.

Molecules are shown by their SMILES.

Take `O=C(O)[C@H]1O[C@@H](Oc2cc3oc(-c4ccccc4)cc(=O)c3c(O)c2O)[C@H](O)[C@@H](O)[C@@H]1O` [baicalin]: the Michaelis-Menten constant (Km) – broadly, the concentration of substrate that gives half-maximal velocity – in the experiment with GUS2 is 0.2732 mg/mL; in the experiment on GUS1, 0.2826 mg/mL.

These data come from article PMC11898752, “Functional Characterization of β-Glucuronidase Genes Involved in Baicalein Biosynthesis from Scutellaria baicalensis Based on Transcriptome Analysis” (International Journal of Molecular Sciences, 2025).
